Measurements: ChEMBL document CHEMBL1124729, “Plant antitumor agents. 29. Synthesis and biological activity of ring D and ring E modified analogues of camptothecin” (1990)
≈ marks a conversion by molar mass, not a printed value. Calls of active or inactive are those of the source. The rule behind the calls is not given here.

Experiments:
[1] = tested on: Nucleic Acid; experiment: The compound was tested for inhibitory activity against DNA relaxation by DNA topoisomerase I at dose 10 uM; assay type: functional
[2] = tested on: Nucleic Acid; experiment: The compound was tested for inhibitory activity against DNA relaxation by DNA topoisomerase I at dose 30 uM; assay type: functional
[3] = tested on: L1210; experiment: The compound was tested in vivo for life prolongation against mouse L1210 tumor cells at 4 mg/kg concentration; assay type: functional
[4] = species: Mus musculus; experiment: (§1) The cytotoxic activity was in vitro tested by 9PS assay method; assay type: functional; conditions: read-out: ED50 (the source's name)
[5] = tested on: P388; experiment: The compound was tested in vivo for life prolongation against mouse P388 tumor cells at 4 mg/kg concentration; assay type: functional
[6] = tested on: KB cells (Homo sapiens); experiment: The cytotoxic activity in vitro by 9KB assay method; conditions: read-out: ED50 (the source's name)
[7] = tested on: Nucleic Acid; experiment: The compound was tested for inhibitory activity against DNA relaxation by DNA topoisomerase I at dose 10-30 uM; Inactive; assay type: functional
[8] = tested on: L1210; experiment: The compound was tested in vivo for life prolongation against mouse L1210 tumor cells at 40 mg/kg concentration; Inactive; assay type: functional, organism-based; design: dose 40 mg/kg
[9] = tested on: P388; experiment: The compound was tested in vivo for life prolongation against mouse P388 tumor cells at 40 mg/kg concentration; No toxicity; assay type: functional, organism-based; design: dose 40 mg/kg
[10] = tested on: L1210; experiment: The compound was tested in vivo for life prolongation against mouse L1210 tumor cells at 80 mg/kg concentration; Inactive; assay type: functional, organism-based; design: dose 80 mg/kg
[11] = tested on: L1210 (Mus musculus); experiment: The compound was tested in vivo for life prolongation against mouse L1210 tumor cells at 80 mg/kg concentration; No toxicity
[12] = as §1; assay type: functional; conditions: Mus musculus; read-out: ED50 (the source's name)
[13] = tested on: Nucleic Acid; experiment: The compound was tested for inhibitory activity against DNA relaxation by DNA topoisomerase I at dose 100 uM; assay type: functional
[14] = tested on: P388; experiment: The compound was tested in vivo for life prolongation against mouse P388 tumor cells at 8 mg/kg concentration; assay type: functional
[15] = tested on: L1210; experiment: The compound was tested in vivo for life prolongation against mouse L1210 tumor cells at 30 mg/kg concentration; Inactive; assay type: functional, organism-based; design: dose 30 mg/kg
[16] = tested on: L1210 (Mus musculus); experiment: The compound was tested in vivo for life prolongation against mouse L1210 tumor cells at 30 mg/kg concentration; Nontoxic
[17] = The cytotoxic activity was in vitro tested by 9PS assay method.; assay type: functional; conditions: Mus musculus; read-out: ED50 (the source's name)
[18] = species: Mus musculus; experiment: The cytotoxic activity in vitro by 9KB assay method.; assay type: functional; conditions: read-out: ED50 (the source's name)

SMILES: CC[C@@]1(O)C(=O)OCc2c1cc1n(c2=O)Cc2cc3ccccc3nc2-1 [CAMPTOTHECIN]
- inhibition [1]: 76%
- inhibition [2]: 85%
- T/C x100 [3]: 200%
- EC50 [4]: 0.08 µg/mL (≈ 0.23 µM)
- T/C x100 [5]: 199%
- EC50 [6]: 0.02 µg/mL (≈ 0.0574 µM)

SMILES: CCC1(N)C(=O)OCc2c1cc1n(c2=O)Cc2cc3ccccc3nc2-1.Cl (centres undefined)
- inhibition [7]: inactive
- T/C x100 [8]: inactive
- EC50 [4]: 3.4 µg/mL
- T/C x100 [9]: No toxicity
- EC50 [6]: 1.6 µg/mL

SMILES: CC[C@@]1(O)C(=O)NCc2c1cc1n(c2=O)Cc2cc3ccccc3nc2-1
- inhibition [7]: inactive
- T/C x100 [10]: inactive
- EC50 [4]: 3 µg/mL (≈ 8.64 µM)
- EC50 [6]: > 10 µg/mL
- T/C x100 [11]: No toxicity

SMILES: CCC1(O)C(=O)OCc2c1ccc1c2-c2nc3ccccc3cc2C1 (centres undefined)
- inhibition [2]: 0%
- EC50 [4]: > 10 µg/mL
- EC50 [6]: > 10 µg/mL

SMILES: CCC1(O)C(=O)OCc2c1cc1n(c2=O)Cc2cc3ccccc3nc2-1 (centres undefined)
- inhibition [1]: 39%
- inhibition [2]: 48%
- EC50 [12]: 0.04 µg/mL (≈ 0.115 µM)
- inhibition [13]: 70%
- T/C x100 [14]: 220%
- EC50 [6]: 0.03 µg/mL (≈ 0.0861 µM)

SMILES: CCC1(N=[N+]=[N-])C(=O)OCc2c1cc1n(c2=O)Cc2cc3ccccc3nc2-1 (centres undefined)
- inhibition [7]: inactive
- T/C x100 [15]: inactive
- EC50 [4]: > 10 µg/mL
- EC50 [6]: > 10 µg/mL
- T/C x100 [16]: Non-toxic

SMILES: CCC1(O)C(=O)OCc2cc3c(cc21)-c1nc2ccccc2cc1C3 (centres undefined)
- EC50 [17]: 2.5 µg/mL (≈ 7.54 µM)
- inhibition [2]: 6%
- EC50 [18]: 1.3 µg/mL (≈ 3.92 µM)
- inhibition [13]: 38%
